Data published in patent US11591355B2 (Peloton Therapeutics, Inc., priority 2017, dated 2023).

How the values were obtained:
Human CD73 = molecular target: T1, Human CD73 (Homo sapiens, UniProt P21589); assay: CD73 Enzyme Assay; format: biochemical; conditions: 0.25 nM hCD73, 25 μM AMP, kinetic read at 360 nm; read-out: CD73 Enzyme Assay IC50
T1 construct: purchased R&D Systems; host or cells: CHO cells
T1 sequence (P21589 27-549): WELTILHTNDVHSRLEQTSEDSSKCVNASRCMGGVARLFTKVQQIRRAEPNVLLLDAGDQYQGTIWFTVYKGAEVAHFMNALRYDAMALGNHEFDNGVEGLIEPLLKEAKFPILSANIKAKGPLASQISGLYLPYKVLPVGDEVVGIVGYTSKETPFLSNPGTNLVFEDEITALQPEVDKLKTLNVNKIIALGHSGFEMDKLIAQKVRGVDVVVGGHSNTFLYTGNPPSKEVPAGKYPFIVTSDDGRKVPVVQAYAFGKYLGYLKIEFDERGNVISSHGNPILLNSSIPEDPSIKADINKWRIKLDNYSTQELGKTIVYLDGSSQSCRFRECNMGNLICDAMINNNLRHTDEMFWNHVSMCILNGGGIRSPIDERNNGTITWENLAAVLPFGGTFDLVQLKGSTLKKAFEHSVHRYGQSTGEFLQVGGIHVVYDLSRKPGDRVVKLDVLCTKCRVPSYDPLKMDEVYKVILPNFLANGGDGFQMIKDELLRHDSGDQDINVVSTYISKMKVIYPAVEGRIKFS

[1] = molecular target: T2, CD73 on U138 human neuroglioma cells (Homo sapiens, UniProt P21589); assay: CD73 Cell-Based Assay; conditions: U138 cells, AMP substrate, 2 hours at 37° C., inorganic phosphate by malachite green
T2 construct: U138 cells were obtained from ATCC and cultured in DMEM with 10% FBS; host or cells: U138 human neuroglioma cells
T2 sequence (P21589 27-549): T1 sequence (P21589 27-549)
Method in brief: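 Whole U138 cells washed free of phosphate were incubated with 200 μM AMP (mixture concentration before equal-volume addition) plus compound in HEPES-buffered saline, pH 7.4, for 2 h at 37 °C, 5% CO2. Adenosine-forming activity read as inorganic phosphate released into supernatant by malachite green.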

| SMILES | IC50 (Human CD73) | IC50 [1] |
| --- | --- | --- |
| C[C@@H](Nc1nc(Cl)nc2c1cnn2[C@@H]1O[C@H](COCP(=O)(O)O)[C@@H](O)[C@H]1O)c1ccc(F)cc1 [Compound 269, [(2R,3S,4R,5R)-5-[6-chloro-4-[[(1R)-1-(4-fluorophenyl)ethyl]-amino]pyrazolo[3,4-d]-pyrimidin-1-yl]-3,4-dihydroxy-tetrahydro-furan-2-yl]methoxy-methylphosphonic acid] | 10 to 100 nM | < 10 nM |
| O=P(O)(O)COC[C@H]1O[C@@H](n2ncc3c(NC4CCC4)nc(Cl)nc32)[C@H](O)[C@@H]1O [Compound 270, [(2R,3S,4R,5R)-5-[6-chloro-4-(cyclobutyl-amino)pyrazolo[3,4-d]-pyrimidin-1-yl]-3,4-dihydroxy-tetrahydro-furan-2-yl]methoxy-methylphosphonic acid] | < 10 nM | < 10 nM |
| O=P(O)(O)COC[C@H]1O[C@@H](n2ncc3c(NC4CC(F)(F)C4)nc(Cl)nc32)[C@H](O)[C@@H]1O [Compound 271, [(2R,3S,4R,5R)-5-[6-chloro-4-[(3,3-difluoro-cyclobutyl)amino]-pyrazolo[3,4-d]-pyrimidin-1-yl]-3,4-dihydroxy-tetrahydro-furan-2-yl]methoxy-methylphosphonic acid] | < 10 nM | < 10 nM |
| CC(C)(O)C#Cc1nc(NC2CCCC2)c2ccn([C@@H]3O[C@H](COCP(=O)(O)O)[C@@H](O)[C@H]3O)c2n1 [Compound 272, [(2R,3S,4R,5R)-5-[4-(cyclopentylamino)-2-(3-hydroxy-3-methyl-but-1-ynyl)pyrrolo[2,3-d]pyrimidin-7-yl]-3,4-dihydroxy-tetrahydro-furan-2-yl]methoxy-methylphosphonic acid] | 10 to 100 nM | < 10 nM |
| O=P(O)(O)COC[C@H]1O[C@@H](n2ncc3c(N4CC5CCCC5C4)nc(Cl)nc32)[C@H](O)[C@@H]1O (stereo partly drawn) [Compound 274, [(2R,3S,4R,5R)-5-[4-(3,3a,4,5,6,6a-hexa-hydro-1H-cyclopenta-[c]pyrrol-2-yl)-6-chloro-pyrazolo[3,4-d]-pyrimidin-1-yl]-3,4-dihydroxy-tetrahydro-furan-2-yl]methoxy-methylphosphonic acid] | < 10 nM | < 10 nM |
| O=P(O)(O)COC[C@H]1O[C@@H](n2ncc3c(N4CCC(F)(F)C4)nc(Cl)nc32)[C@H](O)[C@@H]1O [Compound 275, [(2R,3S,4R,5R)-5-[6-chloro-4-(3,3-difluoro-pyrrolidin-1-yl)-pyrazolo[3,4-d]-pyrimidin-1-yl]-3,4-dihydroxy-tetrahydro-furan-2-yl]methoxy-methylphosphonic acid] | < 10 nM | < 10 nM |
| O=P(O)(O)COC[C@H]1O[C@@H](n2ccc3c(NC4CCCC4)nc(C#CC4(O)CC4)nc32)[C@H](O)[C@@H]1O [Compound 276, ((((2R,3S,4R,5R)-5-(4-(cyclopentylamino)-2-((1-hydroxycyclopropyl)ethynyl)-7H-pyrrolo[2,3-d]pyrimidin-7-yl)-3,4-dihydroxytetrahydrofuran-2-yl)methoxy)methyl)phosphonic acid] | < 10 nM | < 10 nM |
| O=P(O)(O)COC[C@H]1O[C@@H](n2ncc3c(NC4CC5CC5C4)nc(Cl)nc32)[C@H](O)[C@@H]1O (stereo partly drawn) [Compound 279, [(2R,3S,4R,5R)-5-[4-(3-bicyclo[3.1.0]hexa-nylamino)-6-chloro-pyrazolo[3,4-d]-pyrimidin-1-yl]-3,4-dihydroxy-tetrahydro-furan-2-yl]methoxy-methylphosphonic acid] | < 10 nM | < 10 nM |
| O=P(O)(O)COC[C@H]1O[C@@H](n2ncc3c(N4CC5CC5C4)nc(Cl)nc32)[C@H](O)[C@@H]1O (stereo partly drawn) [Compound 280, [(2R,3S,4R,5R)-5-[4-(3-azabicyclo[3.1.0]-hexan-3-yl)-6-chloro-pyrazolo[3,4-d]-pyrimidin-1-yl]-3,4-dihydroxy-tetrahydro-furan-2-yl]methoxy-methylphosphonic acid] | < 10 nM | < 10 nM |
| O=P(O)(O)COC[C@H]1O[C@@H](n2ccc3c(N4CCC[C@@H]4CO)nc(Cl)nc32)[C@H](O)[C@@H]1O [Compound 283, [(2R,3S,4R,5R)-5-[2-chloro-4-[(2R)-2-(hydroxymethyl)-pyrrolidin-1-yl]-pyrrolo[2,3-d]-pyrimidin-7-yl]-3,4-dihydroxy-tetrahydro-furan-2-yl]methoxy-methylphosphonic acid] | 10 to 100 nM | 100 to 1000 nM |
| C[C@H]1CCCN1c1nc(Cl)nc2c1ccn2[C@@H]1O[C@H](COCP(=O)(O)O)[C@@H](O)[C@H]1O [Compound 284, [(2R,3S,4R,5R)-5-[2-chloro-4-[(2S)-2-methylpyrrolidin-1-yl]pyrrolo[2,3-d]-pyrimidin-7-yl]-3,4-dihydroxy-tetrahydro-furan-2-yl]methoxy-methylphosphonic acid] | 10 to 100 nM | 10 to 100 nM |
| O=P(O)(O)COC[C@H]1O[C@@H](c2c[nH]c3c(N4CC5CCCC5C4)nc(Cl)nc23)[C@H](O)[C@@H]1O (stereo partly drawn) [Compound 285, ((((2R,3S,4R,5S)-5-(2-chloro-4-(hexahydrocyclopenta[c]pyrrol-2 (1H)-yl)-5H-pyrrolo[3,2-d]pyrimidin-7-yl)-3,4-dihydroxytetrahydrofuran-2-yl)methoxy)methyl)phosphonic acid] | < 10 nM | < 10 nM |
| O=P(O)(O)CS(=O)(=O)C[C@H]1O[C@@H](n2ncc3c(NC4CCCC4)nc(Cl)nc32)[C@H](O)[C@@H]1O [Compound 287, [(2S,3S,4R,5R)-5-[6-chloro-4-(cyclopentyl-amino)pyrazolo[3,4-d]-pyrimidin-1-yl]-3,4-dihydroxy-tetrahydro-furan-2-yl]methyl-sulfonylmethylphos-phonic acid] | < 10 nM | < 10 nM |
| N#Cc1nc(N2CC3CC3C2)c2cnn([C@@H]3O[C@H](CS(=O)(=O)CP(=O)(O)O)[C@@H](O)[C@H]3O)c2n1 (stereo partly drawn) [Compound 288, [(2S,3S,4R,5R)-5-[4-(3-azabicyclo[3.1.0]-hexan-3-yl)-6-cyano-pyrazolo[3,4-d]-pyrimidin-1-yl]-3,4-dihydroxy-tetrahydro-furan-2-yl]methyl-sulfonylmethylphos-phonic acid] | 10 to 100 nM | 10 to 100 nM |
| O=P(O)(O)CS(=O)(=O)C[C@H]1O[C@@H](n2ccc3c(NC4CCCC4)nc(C(F)F)nc32)[C@H](O)[C@@H]1O [Compound 289, [(2S,3S,4R,5R)-5-[4-(cyclopentylamino)-2-(difluoromethyl)-pyrrolo[2,3-d]-pyrimidin-7-yl]-3,4-dihydroxy-tetrahydro-furan-2-yl]methyl-sulfonylmethylphos-phonic acid] | < 10 nM | < 10 nM |
| C[C@@H](Nc1nc(C#N)nc2c1cnn2[C@@H]1O[C@H](CS(=O)(=O)CP(=O)(O)O)[C@@H](O)[C@H]1O)c1ccc(F)cc1 [Compound 291, [(2S,3S,4R,5R)-5-[6-cyano-4-[[(1R)-1-(4-fluorophenyl)ethyl]-amino]pyrazolo[3,4-d]-pyrimidin-1-yl]-3,4-dihydroxy-tetrahydro-furan-2-yl]methyl-sulfonylmethylphos-phonic acid] | < 10 nM | < 10 nM |
| N#Cc1nc(NC2CC(F)(F)C2)c2cnn([C@@H]3O[C@H](CS(=O)(=O)CP(=O)(O)O)[C@@H](O)[C@H]3O)c2n1 [Compound 292, [(2S,3S,4R,5R)-5-[6-cyano-4-[(3,3-difluoro-difluorocyclobutyl)-amino]pyrazolo[3,4-d]-pyrimidin-1-yl]-3,4-dihydroxy-tetrahydro-furan-2-yl]methyl-sulfonylmethylphos-phonic acid] | < 10 nM | < 10 nM |
| N#Cc1nc(N2CCC(F)(F)C2)c2cnn([C@@H]3O[C@H](CS(=O)(=O)CP(=O)(O)O)[C@@H](O)[C@H]3O)c2n1 [Compound 293, [(2S,3S,4R,5R)-5-[6-cyano-4-(3,3-difluoro-pyrrolidin-1-yl)-pyrazolo[3,4-d]-pyrimidin-1-yl]-3,4-dihydroxy-tetrahydro-furan-2-yl]methyl-sulfonylmethylphos-phonic acid] | 10 to 100 nM | 10 to 100 nM |
| O=P(O)(O)COC[C@H]1O[C@H](c2c[nH]c3c(N4CC5CCCC5C4)nc(Cl)nc23)[C@H](O)[C@@H]1O (stereo partly drawn) [Compound 294, [(2R,3S,4R,5R)-5-[4-(3,3a,4,5,6,6a-hexa-hydro-1H-cyclopenta-[c]pyrrol-2-yl)-2-chloro-5H-pyrrolo[3,2-d]pyrimidin-7-yl]-3,4-dihydroxy-tetrahydro-furan-2-yl]methoxy-methylphosphonic acid] | 10 to 100 nM | < 10 nM |
| O=P(O)(O)COC[C@H]1O[C@@H](c2csc3c(N4CC5CCCC5C4)nc(Cl)nc23)[C@H](O)[C@@H]1O (stereo partly drawn) [Compound 295, [(2R,3S,4R,5S)-5-[4-(3,3a,4,5,6,6a-hexa-hydro-1H-cyclopenta-[c]pyrrol-2-yl)-2-chloro-thieno[3,2-d]-pyrimidin-7-yl]-3,4-dihydroxy-tetrahydro-furan-2-yl]methoxy-methylphosphonic acid] | < 10 nM | < 10 nM |
